In patent US8497294B2, “Compositions comprising (S)-2-amino-1-(4-chlorophenyl)-1-[4-(1H-pyrazol-4-yl)-phenyl]-ethanol as modulator of protein kinases” (Astex Therapeutics Limited, priority 2007, dated 2013):

Key:
[1] = biological target: PKB (Homo sapiens, UniProt P31751); experiment: Activity against the kinase PKB (method not given); settings: compound and its acid addition salts
[2] = biological target: T1, protein kinase B (PKB), fusion protein PKB-PIF (Homo sapiens, UniProt P31751); experiment: PKB kinase inhibitory activity, in vitro radiometric assay; format: biochemical; settings: (radiometric) binding assay, relative to the other enantiomer
T1 construct: made in house
T1 sequence (P31751 with tags, fused parts or gaps limits assumed): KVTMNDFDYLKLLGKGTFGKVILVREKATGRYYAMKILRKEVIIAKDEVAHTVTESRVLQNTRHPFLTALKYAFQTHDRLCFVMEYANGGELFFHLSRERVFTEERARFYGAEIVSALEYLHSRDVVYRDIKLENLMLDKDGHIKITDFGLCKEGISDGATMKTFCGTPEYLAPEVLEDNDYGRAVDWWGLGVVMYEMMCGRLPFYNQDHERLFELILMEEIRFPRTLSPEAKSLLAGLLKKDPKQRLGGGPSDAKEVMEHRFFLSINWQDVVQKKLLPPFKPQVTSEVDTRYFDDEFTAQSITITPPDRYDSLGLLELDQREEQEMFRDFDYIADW
Text: The inhibition of protein kinase B (PKB) activity by compounds can be determined essentially as described by Andjelkovic et al. (Mol. Cell. Biol. 19, 5061-5072 (1999)) but using a fusion protein described as PKB-PIF and described in full by Yang et al (Nature Structural Biology 9, 940-944 (2002)). The protein is purified and activated with PDK1 as described by Yang et al. The peptide AKTide-2T (H-A-R—K—R-E-R-T-Y—S—F-G-H—H-A-OH) obtained from Calbiochem (#123900) is used as a substrate. A final concentration of 0.6 nM enzyme is used in a buffer that includes 20 mM MOPS pH 7.2, 30 μM ATP/γ^33P-ATP and 25 μM substrate. Compounds are added in DMSO solution to a final DMSO concentration of 2.5%. The reaction is allowed to proceed for 20 minutes before addition of excess orthophosphoric acid to quench activity. The reaction mixture is transferred to a phosphocellulose filter plate where the peptide binds and the unused ATP is washed away. After washing, scintillant is added and the incorporated activity measured by scintillation counting.

[3] = system: phosphorylation of GSK3β on serine 9 in U87MG cells; experiment: Cell based phospho-Ser9 GSK3β ELISA (mechanistic cellular assay); settings: for activity in mechanistic cellular ELISA assay: result in words
Method: The effect on inhibiting PKB in U87MG cells is determined by the ability of compounds to inhibit phosphorylation of the direct downstream substrate GSK3β on serine 9. Cells are plated in 96 well plates and allowed to recover overnight prior to addition of the inhibitor compound for 1 hour. After 1 hour, cell are fixed and blocked with 3% paraformaldehyde, 0.25% gluteraldehyde, 0.25% Triton X100 and 5% Marvel in TBS-T. Following this cells are incubated with primary antibody directed to the phosphorylated form of GSK3β (Cell Signaling) overnight at 4° C. After washing, cells are incubated with secondary antibody using the DELFIA reagents (Eu—N1 anti-rabbit IgG antibody) for 1 h, and following enhancement plates are read on a time-resolved fluorescence reader at excitation 340 nm and emission 640 nm. All cells are obtained from ECACC (European Collection of Cell Cultures).
1. U87MG cells plated at 12,500 cells/well in 160 ul media/well in a 96 well plate
2. Incubate for 24 hours at 37° C.
3. Treat cells with the inhibitor and DMSO control
4. Incubate for 1 hour at 37° C.
5. Media flicked from the plate and blot on paper
6. 100 μl fixing solution added to each well (3% paraformaldehyde, 0.25% gluteraldehyde, 0.25% Triton X100)
7. Incubate for 30 minutes at 37° C.
8. Wash 1× with water/0.1% Tween20
9. Block with 100 μl 5% milk/TBS-T
10. Incubate for 30 minutes at 37° C.
11. 100 μl primary antibody diluted in 5% milk/TBS-T added to each well (CST #9336 Phospho-Ser9 GSK3β antibody used at 1:250)
• include a column control with no 1 ab—just 5% milk/TBS-T • can also include a column of Zymed rabbit IgG (02-6102-5 mg/mL) control diluted in 5% milk/TBS-T to the same concentration as the phospho-Ser9 GSK3β if required 12. Incubate overnight at 4° C. 13. Wash 3× with water/0.1% Tween20 14. 100 μl secondary antibody diluted in Delfia Assay Buffer added to each well (Delfia Eu—N1 anti-rabbit IgG antibody used at 0.30 μg/ml final conc) 15. Incubate for 1 hour at 37° C. 16. Wash 3× with water/0.1% Tween20 17. 100 μl Delfia Enhancement Solution added to each well 18. Shake on plate shaker for 15 minutes 19. Read on Delfia programme (excitation 340 nm−emission […])=Europium counts 20. Wash 1× with water/0.1% Tween 20 21. 200 μl BCA solution added per well (BCA with 1:50 Copper II Sulfate) 22. Incubate for 30 minutes at 37° C. 23. Read at absorbance 562 nm=protein concentration

[4] = system: ROCK; settings: cited from earlier work
[5] = biological target: T2, PKA catalytic domain (Homo sapiens, UniProt P17612); experiment: PKA kinase inhibitory activity, radiometric assay; format: biochemical
T2 construct: using the PKA catalytic domain from Upstate Biotechnology (#14-440); purchased Upstate Biotechnology 14-440
Method: A final concentration of 1 nM enzyme is used in a buffer that includes 20 mM MOPS pH 7.2, 40 μM ATP/γ^33P-ATP and […] substrate. Compounds are added in dimethylsulphoxide (DMSO) solution to a final DMSO concentration of 2.5%. The reaction is allowed to proceed for 20 minutes before addition of excess orthophosphoric acid to quench activity. Unincorporated γ^33P-ATP is then separated from phosphorylated proteins on a Millipore MAPH filter plate. The plates are washed, scintillant is added and the plates are then subjected to counting on a Packard Topcount.

[6] = biological target: hERG K+ ion channel (Homo sapiens, UniProt Q12809); experiment: hERG activity
hERG K+ ion channel, sequence (Q12809 whole entry): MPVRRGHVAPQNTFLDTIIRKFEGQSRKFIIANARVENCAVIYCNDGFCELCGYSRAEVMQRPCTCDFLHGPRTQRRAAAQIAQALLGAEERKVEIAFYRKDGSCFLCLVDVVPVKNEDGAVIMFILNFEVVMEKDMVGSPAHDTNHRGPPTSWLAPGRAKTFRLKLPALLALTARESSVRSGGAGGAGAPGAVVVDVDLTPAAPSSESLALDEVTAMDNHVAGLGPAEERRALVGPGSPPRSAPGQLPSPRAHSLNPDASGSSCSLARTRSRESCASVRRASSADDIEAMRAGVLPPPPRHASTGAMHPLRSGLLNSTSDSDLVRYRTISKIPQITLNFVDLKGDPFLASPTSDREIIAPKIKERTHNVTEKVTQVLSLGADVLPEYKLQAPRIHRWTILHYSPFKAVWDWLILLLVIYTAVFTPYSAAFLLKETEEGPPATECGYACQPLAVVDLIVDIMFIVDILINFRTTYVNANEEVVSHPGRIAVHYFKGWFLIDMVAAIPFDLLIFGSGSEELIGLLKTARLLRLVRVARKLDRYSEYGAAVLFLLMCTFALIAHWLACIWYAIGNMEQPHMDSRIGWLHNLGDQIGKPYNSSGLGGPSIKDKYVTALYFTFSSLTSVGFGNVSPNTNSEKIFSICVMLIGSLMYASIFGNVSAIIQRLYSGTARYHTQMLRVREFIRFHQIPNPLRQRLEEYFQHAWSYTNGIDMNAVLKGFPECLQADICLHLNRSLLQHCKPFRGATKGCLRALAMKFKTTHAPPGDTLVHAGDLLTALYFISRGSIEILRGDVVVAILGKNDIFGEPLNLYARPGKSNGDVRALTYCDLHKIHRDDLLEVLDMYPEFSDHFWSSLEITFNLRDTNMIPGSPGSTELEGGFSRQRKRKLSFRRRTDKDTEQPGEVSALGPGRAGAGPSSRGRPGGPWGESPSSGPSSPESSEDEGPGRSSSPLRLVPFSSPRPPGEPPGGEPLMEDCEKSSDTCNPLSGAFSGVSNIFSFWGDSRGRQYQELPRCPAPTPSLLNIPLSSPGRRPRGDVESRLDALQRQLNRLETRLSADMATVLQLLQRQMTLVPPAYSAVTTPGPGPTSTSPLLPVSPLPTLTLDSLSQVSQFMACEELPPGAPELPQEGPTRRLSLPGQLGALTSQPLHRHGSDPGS

[7] = biological target: T3, CYP450 2D6 (Homo sapiens, UniProt P10635); experiment: Potency against cytochrome P450 2D6 (Vivid screening kit); format: in vitro ADME; settings: tested at a concentration of 10 μM
T3 construct: purchased Invitrogen (Paisley, UK), Pan Vera Vivid screening kits; host or cells: baculosomes
T3 sequence (P10635 whole entry): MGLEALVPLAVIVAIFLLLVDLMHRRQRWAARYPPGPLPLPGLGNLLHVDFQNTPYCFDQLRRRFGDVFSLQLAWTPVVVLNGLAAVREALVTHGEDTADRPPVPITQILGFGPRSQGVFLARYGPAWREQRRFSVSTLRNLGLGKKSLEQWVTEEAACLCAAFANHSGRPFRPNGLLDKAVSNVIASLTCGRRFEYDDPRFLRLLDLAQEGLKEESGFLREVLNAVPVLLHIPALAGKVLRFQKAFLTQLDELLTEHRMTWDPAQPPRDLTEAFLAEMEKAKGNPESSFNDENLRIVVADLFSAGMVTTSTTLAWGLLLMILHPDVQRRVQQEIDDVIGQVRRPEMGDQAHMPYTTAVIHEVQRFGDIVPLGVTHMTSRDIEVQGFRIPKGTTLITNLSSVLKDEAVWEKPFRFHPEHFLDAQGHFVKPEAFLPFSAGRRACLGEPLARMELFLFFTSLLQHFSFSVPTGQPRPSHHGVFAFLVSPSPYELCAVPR
Method: (§1) The potency of the compound of Example 1 against cytochrome P450 (CYP450) enzymes 1A2, 2C9, 2C19, 3A4 and 2D6 was determined using the Pan Vera Vivid C450 screening kits available from Invitrogen (Paisley, UK). The CYP450s were supplied in the form of baculosomes containing the CYP450 and NADPH reductase and the substrates used were the fluorescent Vivid substrates. The final reaction mixtures were as follows:
100 mM potassium phosphate, pH 8, 1% acetonitrile, 5 μM 2D6 Blue vivid substrate, 100 μM NADP^+, 16 nM CYP450 2D6, 2.66 mM glucose-6-phosphate, 0.32 U/ml glucose-6-phosphate dehydrogenase.
(§2) Fluorescence was monitored for 20 minutes at 30 second intervals on a Fluoroskan fluorescence plate reader. The excitation and emission wavelengths were 390 nm and 460 nm for 1A2, 2C19 and 3A4, 390 nm and 485 nm for 2D6 and 485 nm and 530 nm for 2C9. Initial rates were determined from progress curves.
(§3) The test compound was made up in acetonitrile and tested against the CYP450s at a concentration of 10 μM.

[8] = biological target: T4, P70S6 kinase (T412E) (Homo sapiens, UniProt P23443, T412E); experiment: p70S6K radiometric assay; format: biochemical; settings: approximately 15 μM ATP
T4 construct: purchased Upstate 14-486
T4 sequence (P23443 1-421 T412E limits assumed): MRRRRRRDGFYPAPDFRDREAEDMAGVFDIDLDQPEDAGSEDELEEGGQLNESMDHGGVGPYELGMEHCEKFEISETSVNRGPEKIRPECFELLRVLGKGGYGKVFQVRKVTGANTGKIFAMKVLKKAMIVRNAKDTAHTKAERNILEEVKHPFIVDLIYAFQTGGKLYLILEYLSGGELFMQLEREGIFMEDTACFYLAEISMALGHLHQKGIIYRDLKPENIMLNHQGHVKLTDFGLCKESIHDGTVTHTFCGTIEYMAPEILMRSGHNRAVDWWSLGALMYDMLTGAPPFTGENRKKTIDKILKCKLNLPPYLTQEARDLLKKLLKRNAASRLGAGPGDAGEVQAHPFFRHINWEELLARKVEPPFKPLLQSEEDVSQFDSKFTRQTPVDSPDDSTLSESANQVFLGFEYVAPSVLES
Method: P70S6 enzyme is bought from Upstate and used at 2 nM in the assay.
The substrate S6 cocktail ([…]) is used at […] (Km has not been determined). In the phosphoryl transfer reaction, the ^33P-γ phosphate from ATP is transferred to the serine residue. The reaction mixture is transferred to a phosphocellulose filter plate where the peptide binds and the unused ATP is washed away. After washing, scintillant is added and the incorporated activity measured by scintillation counting.
S6 kinase substrate cocktail from Upstate (#20-122)
Assay Buffer 10 mM MOPS pH 7.0
• 0.1 mg/ml BSA • 0.001% Brij-35 • 0.5% glycerol • 0.2 mM EDTA • 10 mM MgCl2 • 0.01% β-mercaptoethanol • Made as a 10× stock, stored at […] in 2 ml aliquots • 15 μM ATP
Compounds—prepare a dilution curve in DMSO in a polypropylene 96 well plate to 40× final assay concentration (final DMSO 2.5%).
• 5 μl compound • 10 μl substrate mix • 10 μl enzyme mix
Final ATP concentration is approximately 15 μM. KM for ATP calculated to 47 uM radiometrically. Controls are “no compound” (DMSO only) and “no enzyme” (use 10 μl of the enzyme mix prior to adding enzyme). Cover with a plate seal (TopSeal A—Packard) or plastic lid from filter plate (moderate radiation barrier). Mix by gentle shaking. Incubate at room temperature for 50 minutes. Stop the reaction by adding 20 μl of 2% orthophosphoric acid. […]

[9] = biological target: T5, CYP450 2C19 (Homo sapiens, UniProt P33261); experiment: Potency against cytochrome P450 2C19 (Vivid screening kit); format: in vitro ADME; settings: tested at a concentration of 10 μM
T5 construct: purchased Invitrogen (Paisley, UK), Pan Vera Vivid screening kits; host or cells: baculosomes
T5 sequence (P33261 whole entry): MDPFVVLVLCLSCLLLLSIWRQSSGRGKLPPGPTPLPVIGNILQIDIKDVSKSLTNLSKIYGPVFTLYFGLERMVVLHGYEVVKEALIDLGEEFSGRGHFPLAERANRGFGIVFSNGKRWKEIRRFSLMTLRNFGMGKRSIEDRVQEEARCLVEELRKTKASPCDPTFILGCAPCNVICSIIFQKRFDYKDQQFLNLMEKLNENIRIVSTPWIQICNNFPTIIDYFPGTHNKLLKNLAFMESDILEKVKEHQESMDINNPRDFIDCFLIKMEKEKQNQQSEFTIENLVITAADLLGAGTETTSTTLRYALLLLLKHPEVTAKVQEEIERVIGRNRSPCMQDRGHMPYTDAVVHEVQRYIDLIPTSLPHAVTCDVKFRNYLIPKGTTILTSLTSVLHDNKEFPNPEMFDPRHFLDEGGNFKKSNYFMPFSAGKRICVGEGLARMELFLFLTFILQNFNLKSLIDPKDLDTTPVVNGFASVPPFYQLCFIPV
Method: as §1
50 mM potassium phosphate, pH 8, 1% acetonitrile, 8 μM Blue vivid substrate, 100 μM NADP^+, 4 nM CYP450 2C19, 2.66 mM glucose-6-phosphate, 0.32 U/ml glucose-6-phosphate dehydrogenase.
as §2, §3

[10] = biological target: T6, CYP450 2C9 (Homo sapiens, UniProt P11712); experiment: Potency against cytochrome P450 2C9 (Vivid screening kit); format: in vitro ADME; settings: tested at a concentration of 10 μM
T6 construct: purchased Invitrogen (Paisley, UK), Pan Vera Vivid screening kits; host or cells: baculosomes
T6 sequence (P11712 whole entry): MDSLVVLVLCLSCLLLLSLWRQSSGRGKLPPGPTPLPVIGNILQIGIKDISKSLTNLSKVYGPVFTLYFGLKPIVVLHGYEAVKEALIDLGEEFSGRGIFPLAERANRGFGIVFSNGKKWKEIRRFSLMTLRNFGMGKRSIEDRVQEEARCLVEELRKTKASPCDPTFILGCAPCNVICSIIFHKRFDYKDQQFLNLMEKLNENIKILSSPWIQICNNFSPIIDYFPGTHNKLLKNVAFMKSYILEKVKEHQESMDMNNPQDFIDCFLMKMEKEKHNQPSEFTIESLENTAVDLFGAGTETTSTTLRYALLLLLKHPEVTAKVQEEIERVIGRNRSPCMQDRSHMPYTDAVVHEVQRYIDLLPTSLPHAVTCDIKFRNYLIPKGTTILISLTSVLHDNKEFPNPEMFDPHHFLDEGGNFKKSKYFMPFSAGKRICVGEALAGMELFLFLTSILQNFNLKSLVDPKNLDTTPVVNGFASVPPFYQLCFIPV
Method: as §1
50 mM potassium phosphate, pH 8, 1% acetonitrile, 2 μM Green vivid substrate, 100 μM NADP^+, 8 nM CYP450 2C9, 2.66 mM glucose-6-phosphate, 0.32 U/ml glucose-6-phosphate dehydrogenase.
as §2, §3

[11] = biological target: T7, CYP450 1A2 (Homo sapiens, UniProt P05177); experiment: Potency against cytochrome P450 1A2 (Vivid screening kit); format: in vitro ADME; settings: tested at a concentration of 10 μM
T7 construct: purchased Invitrogen (Paisley, UK), Pan Vera Vivid screening kits; host or cells: baculosomes
T7 sequence (P05177 1-516): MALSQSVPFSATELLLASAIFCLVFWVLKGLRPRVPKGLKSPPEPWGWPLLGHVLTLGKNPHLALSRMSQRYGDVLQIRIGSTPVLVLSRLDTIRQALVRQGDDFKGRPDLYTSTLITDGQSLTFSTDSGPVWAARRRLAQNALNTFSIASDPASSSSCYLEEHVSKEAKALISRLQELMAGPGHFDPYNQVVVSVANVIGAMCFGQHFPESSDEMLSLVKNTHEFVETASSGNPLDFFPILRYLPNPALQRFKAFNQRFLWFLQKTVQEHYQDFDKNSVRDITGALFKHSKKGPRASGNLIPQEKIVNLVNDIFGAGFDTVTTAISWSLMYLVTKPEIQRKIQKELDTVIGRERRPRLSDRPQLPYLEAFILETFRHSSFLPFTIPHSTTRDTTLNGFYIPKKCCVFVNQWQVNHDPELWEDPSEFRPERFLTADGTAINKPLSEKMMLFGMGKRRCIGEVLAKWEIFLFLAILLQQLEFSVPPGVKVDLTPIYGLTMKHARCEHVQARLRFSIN
Method: as §1
100 mM potassium phosphate, pH 8, 1% acetonitrile, 2 μM 1A2 Blue vivid substrate, 100 μM NADP^+, 4 nM CYP450 1A2, 2.66 mM glucose-6-phosphate, 0.32 U/ml glucose-6-phosphate dehydrogenase.
as §2, §3

[12] = biological target: ROCK-II (h) (Homo sapiens, UniProt O75116); experiment: ROCK-II (h) assay; format: biochemical; settings: below the limit of the assay
ROCK-II (h), sequence (O75116 whole entry): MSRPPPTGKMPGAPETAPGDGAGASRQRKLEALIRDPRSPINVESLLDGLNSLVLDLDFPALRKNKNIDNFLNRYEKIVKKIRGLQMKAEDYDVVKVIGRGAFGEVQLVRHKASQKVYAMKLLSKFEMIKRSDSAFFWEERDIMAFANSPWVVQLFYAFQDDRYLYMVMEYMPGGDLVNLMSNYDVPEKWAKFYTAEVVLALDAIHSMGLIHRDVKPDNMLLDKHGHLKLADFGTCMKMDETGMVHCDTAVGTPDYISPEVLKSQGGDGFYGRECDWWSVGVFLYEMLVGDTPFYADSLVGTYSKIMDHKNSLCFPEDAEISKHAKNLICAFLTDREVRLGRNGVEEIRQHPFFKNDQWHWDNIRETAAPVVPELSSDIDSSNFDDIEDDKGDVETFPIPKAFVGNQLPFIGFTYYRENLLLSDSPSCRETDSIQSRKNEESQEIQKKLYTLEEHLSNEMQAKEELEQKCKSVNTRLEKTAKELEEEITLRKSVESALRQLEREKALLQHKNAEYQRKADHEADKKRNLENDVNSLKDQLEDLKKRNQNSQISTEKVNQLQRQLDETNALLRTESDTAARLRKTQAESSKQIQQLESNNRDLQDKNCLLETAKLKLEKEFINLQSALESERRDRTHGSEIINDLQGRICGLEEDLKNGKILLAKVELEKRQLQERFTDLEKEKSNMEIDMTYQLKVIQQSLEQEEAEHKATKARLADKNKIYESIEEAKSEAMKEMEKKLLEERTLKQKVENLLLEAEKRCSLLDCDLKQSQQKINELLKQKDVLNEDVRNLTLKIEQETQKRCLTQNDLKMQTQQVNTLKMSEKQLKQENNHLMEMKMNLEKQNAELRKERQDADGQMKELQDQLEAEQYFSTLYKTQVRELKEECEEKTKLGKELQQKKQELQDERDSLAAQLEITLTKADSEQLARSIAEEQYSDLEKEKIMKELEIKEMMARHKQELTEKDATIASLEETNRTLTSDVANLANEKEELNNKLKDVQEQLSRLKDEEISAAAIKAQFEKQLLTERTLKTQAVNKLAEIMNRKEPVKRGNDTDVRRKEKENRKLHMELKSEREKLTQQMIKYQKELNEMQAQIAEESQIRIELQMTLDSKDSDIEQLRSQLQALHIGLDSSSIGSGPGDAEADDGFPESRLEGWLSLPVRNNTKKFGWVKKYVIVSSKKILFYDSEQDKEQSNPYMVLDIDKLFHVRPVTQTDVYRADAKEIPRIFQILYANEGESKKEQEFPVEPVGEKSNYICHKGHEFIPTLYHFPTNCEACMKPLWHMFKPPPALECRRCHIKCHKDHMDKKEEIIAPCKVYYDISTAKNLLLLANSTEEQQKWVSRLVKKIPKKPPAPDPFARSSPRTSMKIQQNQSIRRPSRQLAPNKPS
Method: In a final reaction volume of 25 μl ROCK-II (h) (5-10 mU) is incubated with 50 mM Tris pH 7.5, 0.1 mM EGTA, 30 μM […], 10 mM MgAcetate and [γ-^33P-ATP] (specific activity approx. 500 cpm/pmol, concentration as required). The reaction is initiated by the addition of the MgATP mix. After incubation for 40 minutes at room temperature, the reaction is stopped by the addition of 5 μl of a 3% phosphoric acid solution. 10 μl of the reaction is then spotted onto a P30 filtermat and washed three times for 5 minutes in 75 mM phosphoric acid and once in methanol prior to drying and scintillation counting.

SMILES: NCC(O)(c1ccc(Cl)cc1)c1ccc(I)cc1 (racemic) [compound of the formula (12), 2-amino-1-(4-chloro-phenyl)-1-[4-iodo-phenyl]-ethanol]
- activity against the kinase PKB [1]: have activity against the kinase PKB

SMILES: CNC[C@@H](c1ccc(Cl)cc1)c1ccc(-c2cn[nH]c2)cc1 (single isomer, unassigned) [Isomer A]
- fold more active against PKB than its antipode [2]: 10 fold

SMILES: NC[C@@H](c1ccc(Cl)cc1)c1ccc(-c2cn[nH]c2)cc1 (single isomer, unassigned) [Isomer C]
- fold more active against PKB than its antipode [2]: about 10 fold
- activity in mechanistic cellular ELISA assay [3]: essentially equipotent

SMILES: NC[C@H](c1ccc(Cl)cc1)c1ccc(-c2cn[nH]c2)cc1 (single isomer, unassigned) [Isomer D]
- activity in mechanistic cellular ELISA assay [3]: essentially equipotent

SMILES: C[C@@H](N)[C@H]1CC[C@H](C(=O)Nc2ccncc2)CC1 [Example Y-27632]
- effective doses for the use of this compound [4]: approximately 30 uM

SMILES: NC[C@](O)(c1ccc(Cl)cc1)c1ccc(-c2cn[nH]c2)cc1 [R-enantiomer, (R)-2-amino-1-(4-chloro-phenyl)-1-[4-(1H-pyrazol-4-yl)-phenyl]-ethanol]
- IC50 ([5]; isolated enzyme, read-out: IC50 against PKA): 0.25 µM
- IC50 ([3]; Homo sapiens, U-87 MG, U87MG cells, 1 hour with inhibitor): > 50 µM
- activity in mechanistic cellular ELISA assay [3]: no measurable activity

SMILES: NC[C@@](O)(c1ccc(Cl)cc1)c1ccc(-c2cn[nH]c2)cc1 [compound of formula (I), (S)-2-amino-1-(4-chloro-phenyl)-1-[4-(1H-pyrazol-4-yl)-phenyl]-ethanol]
- hERG ion channel blocking activity [6]: negligible
- IC50 [7]: > 10 µM
- IC50 [8]: 0.012 µM
- IC50 [9]: > 10 µM
- IC50 [10]: > 10 µM
- inhibition at 0.03 µM ([5]; at a concentration of 0.03 μM): 44%
- activity in mechanistic cellular ELISA assay [3]: good activity
- IC50 [11]: > 10 µM
- IC50 [12]: < 0.01 µM
